The text below walks through data of US11826351B2, “Compounds useful as kinase inhibitors” (Loxo Oncology, Inc., priority 2015, dated 2023).

Each structure is given as a SMILES string.

The target of assay [1] is T1, Recombinant BTK^WT kinase (Homo sapiens, UniProt Q06187).
T1 construct: purchased Invitrogen
In words: BTK WT binding affinity (LanthaScreen TR-FRET). As to conditions: Kinase Tracer 236, 5 h incubation. In outline:
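IC50 obtained by variable-slope fit of TR-FRET signal (ex 340 nm; em 615 and 665 nm) versus inhibitor concentration. Reaction held for 5 h in LanthaScreen Kinase Buffer A with 2.5 nM His-tagged BTK^WT, 15 nM Kinase Tracer 236 and 2 nM Eu anti-His antibody.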
For orientation: In TR-FRET formats the signal depends on donor and acceptor labels being close together.

Assay [2] has as its target T2, Recombinant BTK^C481S kinase (Homo sapiens, UniProt Q06187, C481S).
T2 construct: purchased SignalChem
The experiment in a line: BTK C481S binding affinity (LanthaScreen TR-FRET). The note with it: Kinase Tracer 236, 5 h incubation. In outline: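 BTK C481S tracer-displacement TR-FRET: 5 nM His-tagged kinase, 2 nM Eu anti-His antibody and 30 nM Kinase Tracer 236 incubated with titrated inhibitor for 5 h in Kinase Buffer A. Read at 340 nm excitation, 615/665 nm emission; IC50 from variable-slope log[inhibitor]–response fit.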

Assay [3] concerns OCI-Ly10 human DLBCL cells. In words: OCI-Ly10 anti-proliferative activity (Resazurin). Type of assay: cell-based. As to conditions: Homo sapiens, OCI-Ly10, 72 h, OCI-Ly10 cells, 72 h compound treatment, Resazurin; read-out: Proliferation Assay OCI-Ly10-20% FBS. In outline:
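A separate untreated plate gave the Day 0 reading, measured by Resazurin fluorescence at 590 nm after 5 h. The average Day 0 value was subtracted from each treated well, and results were expressed as percent of DMSO control. IC50 values came from a log[Inhibitor] vs response Variable Slope fit in Graphpad prism.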
For orientation: Alamar Blue is a resazurin reagent that responds to reducing activity.

For assay [4], the target named is T3, Recombinant EGFR (Homo sapiens, UniProt P00533).
T3 construct: purchased Invitrogen
T3 sequence (P00533 25-1210): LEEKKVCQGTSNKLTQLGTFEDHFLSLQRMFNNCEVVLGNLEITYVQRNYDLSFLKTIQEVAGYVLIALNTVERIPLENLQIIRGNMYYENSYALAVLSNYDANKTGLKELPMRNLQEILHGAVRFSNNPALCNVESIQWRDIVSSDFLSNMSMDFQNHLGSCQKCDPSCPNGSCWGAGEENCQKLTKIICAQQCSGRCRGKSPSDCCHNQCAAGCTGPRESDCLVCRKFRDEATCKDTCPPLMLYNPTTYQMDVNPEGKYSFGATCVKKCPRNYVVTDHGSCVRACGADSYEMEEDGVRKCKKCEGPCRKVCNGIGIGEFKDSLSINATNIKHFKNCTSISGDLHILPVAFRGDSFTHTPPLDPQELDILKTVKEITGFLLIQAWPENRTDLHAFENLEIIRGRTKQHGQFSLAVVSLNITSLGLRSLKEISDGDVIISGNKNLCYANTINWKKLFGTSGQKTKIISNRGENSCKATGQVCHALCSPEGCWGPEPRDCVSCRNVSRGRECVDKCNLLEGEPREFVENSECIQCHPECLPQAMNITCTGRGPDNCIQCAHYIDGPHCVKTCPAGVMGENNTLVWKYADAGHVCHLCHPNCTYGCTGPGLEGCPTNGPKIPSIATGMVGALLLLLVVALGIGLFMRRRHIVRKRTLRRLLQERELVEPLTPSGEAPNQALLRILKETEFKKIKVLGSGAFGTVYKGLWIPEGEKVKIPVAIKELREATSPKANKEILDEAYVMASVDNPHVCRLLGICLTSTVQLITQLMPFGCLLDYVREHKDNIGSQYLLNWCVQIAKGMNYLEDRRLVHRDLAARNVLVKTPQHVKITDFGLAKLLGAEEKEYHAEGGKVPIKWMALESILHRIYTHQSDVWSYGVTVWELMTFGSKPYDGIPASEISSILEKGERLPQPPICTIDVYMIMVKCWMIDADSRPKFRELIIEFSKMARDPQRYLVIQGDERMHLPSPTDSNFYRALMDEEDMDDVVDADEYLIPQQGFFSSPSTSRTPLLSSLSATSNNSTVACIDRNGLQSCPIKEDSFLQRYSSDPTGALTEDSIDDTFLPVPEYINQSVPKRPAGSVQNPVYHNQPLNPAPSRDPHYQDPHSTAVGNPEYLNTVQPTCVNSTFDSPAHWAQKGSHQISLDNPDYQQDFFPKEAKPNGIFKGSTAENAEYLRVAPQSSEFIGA
The experiment in a line: EGFR binding affinity (LanthaScreen TR-FRET). The note with it: Kinase Tracer 199, 5 h incubation. In outline:
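Compounds were titrated against recombinant EGFR and binding was followed by LanthaScreen time-resolved FRET.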

T2 sequence (Q06187 whole entry C481S): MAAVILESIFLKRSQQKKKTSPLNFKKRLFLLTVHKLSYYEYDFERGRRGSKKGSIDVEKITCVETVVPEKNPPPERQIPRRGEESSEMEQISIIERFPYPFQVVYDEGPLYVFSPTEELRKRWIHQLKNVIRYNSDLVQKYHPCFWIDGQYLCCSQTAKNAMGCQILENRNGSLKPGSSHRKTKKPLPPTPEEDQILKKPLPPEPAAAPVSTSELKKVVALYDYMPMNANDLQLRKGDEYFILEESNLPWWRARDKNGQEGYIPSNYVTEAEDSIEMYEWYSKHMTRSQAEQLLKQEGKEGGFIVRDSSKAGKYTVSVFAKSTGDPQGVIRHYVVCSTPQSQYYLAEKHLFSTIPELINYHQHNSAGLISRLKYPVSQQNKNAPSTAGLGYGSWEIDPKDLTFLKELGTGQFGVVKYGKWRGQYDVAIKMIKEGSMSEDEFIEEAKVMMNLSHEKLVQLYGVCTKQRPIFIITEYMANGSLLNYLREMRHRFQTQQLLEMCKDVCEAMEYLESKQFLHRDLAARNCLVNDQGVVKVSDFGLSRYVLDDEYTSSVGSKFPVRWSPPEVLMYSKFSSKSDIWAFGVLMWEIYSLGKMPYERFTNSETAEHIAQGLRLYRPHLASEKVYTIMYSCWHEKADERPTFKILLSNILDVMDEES
T1 sequence (Q06187 whole entry): as the sequence (Q06187 whole entry C481S) above, with S481C counted along it

As to `CCN1CC(n2nc(-c3ccc(CNC(=O)c4cc(F)ccc4OC)cc3)c(C(N)=O)c2N)C(F)(F)C1` (centres unmarked) [Example 198, 5-Amino-1-(1-ethyl-4,4-difluoro-pyrrolidin-3-yl)-3-[4-[[(5-fluoro-2-methoxy-benzoyl)amino]methyl]phenyl]pyrazole-4-carboxamide], the IC50 in assay [1] is less than 10 nM; in assay [2], less than 10 nM; in assay [3] it was 10 to 100 nM; in assay [4], 1000 to 10000 nM.
As to `COc1ccccc1C(=O)NCc1ccc(-c2nn(CC(=O)C(C)(C)C)c(N)c2C(N)=O)cc1` [Example 10, 5-Amino-1-(3,3-dimethyl-2-oxo-butyl)-3-[4-[[(2-methoxybenzoyl)amino]methyl]phenyl]pyrazole-4-carboxamide], the IC50 in assay [1] was in the range of 10 to 100 nM; in assay [2], 10 to 100 nM; in assay [3], 100 to 1000 nM; in assay [4] it was 1000 to 10000 nM.
For the compound `COc1ccc(F)cc1C(=O)NCc1ccc(-c2nn(C3CCOCC3)c(N)c2C(N)=O)c(F)c1` [Example 106, 5-amino-3-[2-fluoro-4-[[(5-fluoro-2-methoxy-benzoyl)amino]methyl]phenyl]-1-tetrahydropyran-4-yl-pyrazole-4-carboxamide], the IC50 was less than 10 nM in assay [1], less than 10 nM in assay [2], 100 to 1000 nM in assay [3] and greater than 10000 nM in assay [4].
For the compound `COc1ccccc1C(=O)NCc1ccc(-c2nn(C)c(N)c2C(N)=O)cc1` [Example 30, 5-Amino-3-[4-[[(2-methoxybenzoyl)amino]methyl]phenyl]-1-methyl-pyrazole-4-carboxamide], the IC50 in assay [1] is 10 to 100 nM; in assay [2], 10 to 100 nM; in assay [3] it was 100 to 1000 nM; in assay [4], greater than 10000 nM.
Turning to `COc1ccccc1C(=O)NCc1ccc(-c2nn(C3CCOCC3C)c(N)c2C(N)=O)cc1` (mixture of isomers) [Example 86, 5-amino-3-[4-[[(2-methoxybenzoyl)amino]methyl]phenyl]-1-(3-methyltetrahydropyran-4-yl)pyrazole-4-carboxamide], the IC50 in assay [1] was less than 10 nM; in assay [2] it was less than 10 nM; in assay [3], 100 to 1000 nM; in assay [4], 100 to 1000 nM.
With `COc1ccccc1C(=O)NCc1cc(F)c(-c2nn(C3CCCC3)c(N)c2C(N)=O)cc1F` [Example 156, 5-amino-1-cyclopentyl-3-[2,5-difluoro-4-[[(2-methoxybenzoyl)amino]methyl]phenyl]pyrazole-4-carboxamide], the IC50 is less than 10 nM in assay [1], less than 10 nM in assay [2], 10 to 100 nM in assay [3] and greater than 10000 nM in assay [4].
`COc1ccccc1C(=O)NCc1ccc(-c2nn(C3CCC(O)CC3)c(N)c2C(N)=O)cc1` (single isomer, unassigned) [Example 34b, 5-Amino-1-(4-hydroxycyclohexyl)-3-[4-[[(2-methoxybenzoyl)amino]methyl]phenyl]pyrazole-4-carboxamide]: the IC50 was less than 10 nM in assay [1], less than 10 nM in assay [2], 10 to 100 nM in assay [3] and 1000 to 10000 nM in assay [4].
Take `COc1ccc(F)cc1C(=O)NCc1ccc(-c2nn(C3CNCC3(F)F)c(N)c2C(N)=O)cc1` (centres unmarked) [Example 169, 5-amino-1-(4,4-difluoropyrrolidin-3-yl)-3-[4-[[(5-fluoro-2-methoxy-benzoyl)amino]methyl]phenyl]pyrazole-4-carboxamide]: the IC50 in assay [1] was less than 10 nM; in assay [2], less than 10 nM; in assay [3] it was 10 to 100 nM; in assay [4], 1000 to 10000 nM.
For the compound `COc1ccc(F)cc1C(=O)NCc1ccc(-c2nn(C(C(C)(C)C)C(F)(F)F)c(N)c2C(N)=O)cc1` (centres unmarked) [Example 194, 5-amino-1-[2,2-dimethyl-1-(trifluoromethyl)propyl]-3-[4-[[(5-fluoro-2-methoxy-benzoyl)amino]methyl]phenyl]pyrazole-4-carboxamide], the IC50 in assay [1] was 10 to 100 nM; in assay [2], 10 to 100 nM; in assay [3], 100 to 1000 nM; in assay [4] it was 1000 to 10000 nM.
On to `COc1ccc(F)cc1C(=O)NCc1ccc(-c2nn(C(C)(C)C(F)(F)F)c(N)c2C(N)=O)cc1` [Example 189, 5-amino-3-[4-[[(5-fluoro-2-methoxy-benzoyl)amino]methyl]phenyl]-1-(2,2,2-trifluoro-1,1-dimethyl-ethyl)pyrazole-4-carboxamide], for which the IC50 in assay [1] was less than 10 nM; in assay [2] it was less than 10 nM; in assay [3], 10 to 100 nM; in assay [4], 1000 to 10000 nM.
`COc1ccccc1C(=O)NCc1ccc(-c2nn(C3C[C@@H]4C[C@@H]4C3)c(N)c2C(N)=O)cc1` (some centres unmarked) [Example 4, 5-Amino-1-(3-bicyclo[3.1.0]hexanyl)-3-[4-[[(2-methoxybenzoyl)amino]methyl]phenyl]pyrazole-4-carboxamide]: the IC50 in assay [1] is less than 10 nM; in assay [2], less than 10 nM; in assay [3], less than 10 nM; in assay [4], 100 to 1000 nM.
`COc1ccc(F)cc1C(=O)NCc1ccc(-c2nn([C@H](C)C(F)(F)F)c(N)c2C(N)=O)cc1` (single isomer, unassigned) [Example 163b, 5-amino-3-[4-[[(5-fluoro-2-methoxy-benzoyl)amino]methyl]phenyl]-1-(2,2,2-trifluoro-1-methyl-ethyl)pyrazole-4-carboxamide]: the IC50 is less than 10 nM in assay [1], less than 10 nM in assay [2], 10 to 100 nM in assay [3] and 1000 to 10000 nM in assay [4].
Take `COc1ccc(F)cc1C(=O)NCc1ccc(-c2nn(C3CCOCC3)c(N)c2C(N)=O)cc1` [Example 115, 5-amino-3-[4-[[(5-fluoro-2-methoxy-benzoyl)amino]methyl]phenyl]-1-tetrahydropyran-4-yl-pyrazole-4-carboxamide]: the IC50 is less than 10 nM in assay [1], less than 10 nM in assay [2], 10 to 100 nM in assay [3] and 1000 to 10000 nM in assay [4].
In the case of `COc1ccc(F)cc1C(=O)NCc1ccc(-c2nn([C@@H]3CCCOC3)c(N)c2C(N)=O)cc1` [Example 183, 5-amino-3-[4-[[(5-fluoro-2-methoxy-benzoyl)amino]methyl]phenyl]-1-[(3R)-tetrahydropyran-3-yl]pyrazole-4-carboxamide], the IC50 in assay [1] is less than 10 nM; in assay [2], less than 10 nM; in assay [3] it was 100 to 1000 nM; in assay [4], 1000 to 10000 nM.
With `COc1ccccc1C(=O)NCc1ccc(-c2nn(C3CCOCC3)c(C(F)F)c2C(N)=O)cc1` [Example 108, 5-(difluoromethyl)-3-[4-[[(2-methoxybenzoyl)amino]methyl]phenyl]-1-tetrahydropyran-4-yl-pyrazole-4-carboxamide], the IC50 in assay [1] was 10 to 100 nM; in assay [2], 10 to 100 nM; in assay [3], 1000 to 10000 nM; in assay [4] it was greater than 10000 nM.
Take `COc1ccccc1C(=O)NCc1ccc(-c2nn(C3CC(C)(C)OC(C)(C)C3)c(N)c2C(N)=O)cc1` [Example 90, 5-amino-3-[4-[[(2-methoxybenzoyl)amino]methyl]phenyl]-1-(2,2,6,6-tetramethyltetrahydropyran-4-yl)pyrazole-4-carboxamide]: the IC50 is 10 to 100 nM in assay [1], less than 10 nM in assay [2], 100 to 1000 nM in assay [3] and 1000 to 10000 nM in assay [4].
For `COc1ccc(F)cc1C(=O)NCc1ccc(-c2nn(C(C)C(F)(F)F)c(N)c2C(N)=O)c(F)c1F` (centres unmarked) [Example 165, 5-amino-3-[2,3-difluoro-4-[[(5-fluoro-2-methoxy-benzoyl)amino]methyl]phenyl]-1-(2,2,2-trifluoro-1-methyl-ethyl)pyrazole-4-carboxamide] the same measures were 10 to 100 nM, less than 10 nM, 10 to 100 nM and 1000 to 10000 nM.
`COc1ccc(F)cc1C(=O)NCc1ccc(-c2nn(C3CCOC3)c(N)c2C(N)=O)c(F)c1F` (centres unmarked) [Example 182, 5-amino-3-[2,3-difluoro-4-[[(5-fluoro-2-methoxy-benzoyl)amino]methyl]phenyl]-1-tetrahydrofuran-3-yl-pyrazole-4-carboxamide]: the IC50 was 10 to 100 nM in assay [1], less than 10 nM in assay [2], 100 to 1000 nM in assay [3] and 1000 to 10000 nM in assay [4].
In the case of `COc1ccccc1C(=O)NCc1ccc(-c2nn([C@@H]3CCc4ccccc43)c(N)c2C(N)=O)cc1` [Example 23, 5-Amino-1-[(1R)-indan-1-yl]-3-[4-[[(2-methoxybenzoyl)amino]methyl]phenyl]pyrazole-4-carboxamide], the IC50 is less than 10 nM in assay [1], less than 10 nM in assay [2], 10 to 100 nM in assay [3] and 100 to 1000 nM in assay [4].
Regarding `COc1ccccc1C(=O)NCc1ccc(-c2nn(C3CCCC3)c(N)c2C(N)=O)cc1` [Example 1, 5-amino-1-cyclopentyl-3-[4-[[(2-methoxybenzoyl)amino]methyl]phenyl]pyrazole-4-carboxamide], the IC50 was less than 10 nM in assay [1], less than 10 nM in assay [2], less than 10 nM in assay [3] and 100 to 1000 nM in assay [4].
